In patent publication US20140322348A1 (priority 2011, published 2014):

Assays:
[1] = tested on: cucumber downy mildew; experiment: Greenhouse trial against cucumber downy mildew, foliar sprays; conditions: rates TG 0.5%, potassium phosphite 0.4%
Description: Combinations of TTO (supplied as Timorex Gold®, 23.8% TTO) and a synthetic fungicidal composition (supplied Canon® 50 from Luxembourg Industries Ltd., Israel, containing 780 g potassium phosphite (equivalent to 500 g phosphorous acid) per liter) were tested against cucumber downy mildew. Greenhouse-grown plants were drip irrigated and fertilized according to known recommendations for this crop. Treatments were applied in a randomized complete block, with 5 replications per treatment. Plot size in each instance was of 7 m length, containing 14 plants. The TTO or potassium phosphite composition were diluted prior to use. Fungicidal treatment was applied using backpack sprayer equipped with a mist blower (STHIL 340) to spray a at a rate of 350 cc/dunam. Three foliar sprays were applied at 11-13 day intervals. Disease severity was evaluated by determining the leaf area covered with downy mildew (disease severity) on each of 20 leaves randomly selected per each replicate. […] To analyze the results, an arc-sin transformation was performed on the raw data, and analysis of variance (ANOVA) using the SAS GLM procedure was applied to the transformed data. The Tukey-Kramer Test was applied to determine whether differences between treatments were significant.

[2] = tested on: grapevine downy mildew; experiment: Vineyard trial against grapevine downy mildew, foliar sprays; conditions: seven days after third application, rates TG 0.3%, potassium phosphite 0.4%, Liquid Copper 0.25%; for % infected leaf area: grape "Superior"
Description: The Timorex Gold or synthetic fungicidal composition were diluted prior to use. At the outset, pre-harvest plants were moderately infected with downy mildew. The crops studied were drip irrigated and fertilized according to known recommendations. Treatments were applied in a randomized complete block, with 4 replications per treatment. Plot size in each instance was 8 m length. Fungicidal treatment was applied using backpack sprayer equipped with a mist blower (STHIL 340 with endpiece 3) to spray a volume of 100 liter/dunam (1000 liter/ha) Foliar sprays were applied on days 1, 10 and 17. The plants were inspected on day 1 (prior to spraying) and days 11, 18 and 24. At the beginning of the experiment, for each group, 5 plant extremities having single leafs were marked. The percent of coverage of downy mildew on a five square cm area was estimated before marking in order to estimate the efficacy in curing infection and after marking to estimate the efficacy in preventing infection. To analyze the results, an arc-sin transformation was performed on the raw data, and analysis of variance (ANOVA) using the SAS GLM procedure was applied to the transformed data. The Tukey-Kramer Test was applied to determine whether differences between treatments were significant.

## potassium phosphite
[1]; 11 days after third application
  Severity % infected leaf area: 1.4%
[1]; Incidence, seven days after third application
  Efficacy (%): 74.4%
[1]; Seven days after third application
  Incidence % leaves infected: 23.7%
[1]; Severity, 11 days after third application
  Efficacy (%): 92.1%
[2]; Curative
  % infected leaf area: 28.25%
  Efficacy (%): 25.2%
[2]; Protectant
  % infected leaf area: 14%
  Efficacy (%): 62.9%
